Reference: paper PMC7037732, “Synthesis of Combretastatin A-4 and 3′-Aminocombretastatin A-4 derivatives with Aminoacid Containing Pendants and Study of their Interaction with Tubulin and as Downregulators of the VEGF, hTERT and c-Myc Gene Expression” (Molecules, 2020)

Assays:
[1] = test system: hTERT gene; experiment: hTERT gene expression by RT-qPCR in HT-29 cells; assay type: cell-based, human
Experimental: The effect on the expression of VEGF, hTERT and c-Myc genes has been studied for CA-4 and its derivatives that show selectivity indexes higher than 0.9 on the HT-29 cell line. The studied derivatives, together with the concentrations to which they have been tested, are CA-4 (15 μM); 4.1 (Gly, 5 μM); 4.5 (L-Pro, 25 μM); 4.9 (L-Met, 25 μM); 6.2 (D-Leu, 25 μM); 6.3 (D-Phe, 25 μM); 6.4 (D-Pro, 25 μM) and 6.5 (D-Ser, 10 μM). The expression of the genes was determined by RT-qPCR methodology, as described in the Materials and Methods section.
As regards AmCA-4 derivatives, the effect on the expression of the VEGF, hTERT and c-Myc genes has been studied on those that show IC50 in the low nanomolar range on the HT-29 cell line and/or on compounds whose selectivity indexes with respect to this cell line are higher than 1. The studied compounds, together with the concentrations to which they have been tested, are: CA-4 (15 μM), AmCA-4 (15 nM), 7.1 (7 nM), 7.2 (1.5 nM), 7.3 (4 nM), 7.4 (15 nM), 7.5 (2 nM), 7.7 (7 nM), 7.8 (15 nM), 7.9 (30 nM), 8.1 (7 nM), 8.2 (3 nM), 8.3 (10 nM), 8.4 (1.5 nM), 8.5 (4 nM), 8.7 (7 nM), 8.8 (3 nM) and 8.9 (4 nM).
HT-29 cells at 70–80% confluence were collected, and 1.5 × 10^5 cells were placed in a six-well plate in 1.5 mL of the medium. After 24 h, cells were incubated with the corresponding compounds for 48 h. Cells were collected, and the total cellular RNA from the HT-29 cells was isolated using an Ambion RNA Extraction Kit, according to the manufacturer’s instructions. The cDNA was synthesized by MMLV-RT with […] of extracted RNA and oligo(dT)15, according to the manufacturer’s instructions. Genes were amplified by a thermal cycler and StepOnePlus™ TaqMan® probes. TaqMan® Gene Expression Master Mix Fast, containing the appropriate buffer for the amplification conditions, dNTPs, thermostable DNA polymerase enzyme and a passive reference probe, was used. To amplify each of the genes, the predesigned primers sold by Life Technologies TaqMan® Gene Expression Assays Hs99999903-m1 (β-actin), Hs00900055-m1 (VEGF), Hs00972646-m1 (hTERT) and Hs00153408-m1 (c-Myc) were used.

[2] = test system: A-549 (human pulmonary adenocarcinoma); experiment: Inhibition of cell proliferation (MTT), A-549; assay type: cell-based; settings: Homo sapiens, A549, 48 h, 48 h of treatment (footnote), average ±SD of three experiments
Outline: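 Antiproliferative activity against A-549 human pulmonary adenocarcinoma cells was measured by MTT assay. Cells were seeded at 25,000/mL in 96-well plates, cultured 24 h, then exposed to compounds at various concentrations. MTT (20 µL, 5 mg·mL^−1) was added for 2 h at 37 °C, formazan dissolved in 200 µL DMSO, and absorbance read at 540 nm. IC50 values came graphically from three independent experiments.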

[3] = test system: HEK-293 (human embryonic kidney cells); experiment: Inhibition of cell proliferation (MTT), nontumor HEK-293; assay type: cell-based; settings: 48 h of treatment (footnote), average ±SD of three experiments
[4] = Homo sapiens, HEK293, 48 h, Table 2
[5] = Homo sapiens, HEK293, 48 h, Table 1
[6] = Homo sapiens; HT-29, 48 h, 25 μM; control 100
[7] = Homo sapiens, HT-29, 48 h, 25 μM, control 100
[8] = Homo sapiens, HT-29, 48 h, 7 nM, control 100
[9] = Homo sapiens, HT-29, 48 h, 4 nM, control 100

## COc1ccc(/C=C\c2cc(OC)c(OC)c(OC)c2)cc1N [AmCA-4, 3′-aminocombretastatin A-4]
[1]; Homo sapiens; HT-29, 48 h, 15 nM; control 100
  mrna remaining at 0.015 µM: 50%
[2]; Table 2
  IC50: 117 ± 7 nM
[3]; [4]
  IC50: 7 ± 1 nM

## COc1ccc(/C=C\c2cc(OC)c(OC)c(OC)c2)cc1O [CA-4, combretastatin A-4]
[1]; Homo sapiens; HT-29, 48 h, 15 μM; control (DMSO) 100; normalized to β-actin
  mrna remaining at 15 µM: 85%
[2]; Table 1
  IC50: 428 ± 4 nM
[3]; Homo sapiens, HEK293, Table 1
  IC50: 25000 ± 3000 nM

## COc1ccc(/C=C\c2cc(OC)c(OC)c(OC)c2)cc1OCC(=O)NCC(=O)O [Compound 4.1]
[1]; Homo sapiens, HT-29, 48 h, 5 μM, control 100
  mrna remaining at 5 µM: 56%
[2]; Table 1
  IC50: 24000 ± 4000 nM
[3]; [5]
  IC50: 5000 ± 1000 nM

## COc1ccc(/C=C\c2cc(OC)c(OC)c(OC)c2)cc1OCC(=O)N[C@H](C(=O)O)C(C)C [Compound 4.2]
[1]; [6]
  mrna remaining at 25 µM: 82%
[2]; Table 1
  IC50: 17000 ± 2000 nM
[3]; Homo sapiens, HEK293, Table 1
  IC50: 4000 ± 1000 nM

## COc1ccc(/C=C\c2cc(OC)c(OC)c(OC)c2)cc1OCC(=O)N[C@@H](CCSC)C(=O)O [Compound 4.9]
[1]; HT-29, 48 h; discussion; concentration per compound
  downregulation of hTERT gene expression: more than 55%
[1]; [7]
  mrna remaining at 25 µM: 38%
[2]; Table 1
  IC50: > 300000 nM
[3]; [5]
  IC50: 40000 ± 4000 nM

## COc1ccc(/C=C\c2cc(OC)c(OC)c(OC)c2)cc1OCC(=O)N[C@H](CC(C)C)C(=O)O [Compound 6.2]
[1]; [7]
  mrna remaining at 25 µM: 87%
[2]; Table 1
  IC50: 68000 ± 1000 nM
[3]; [5]
  IC50: 49000 ± 12000 nM

## COc1ccc(/C=C\c2cc(OC)c(OC)c(OC)c2)cc1OCC(=O)N[C@H](Cc1ccccc1)C(=O)O [Compound 6.3]
[1]; [6]
  mrna remaining at 25 µM: 68%
[2]; Table 1
  IC50: 60000 ± 4000 nM
[3]; Homo sapiens, HEK293, Table 1
  IC50: 46000 ± 6000 nM

## COc1ccc(/C=C\c2cc(OC)c(OC)c(OC)c2)cc1OCC(=O)N1CCC[C@@H]1C(=O)O [Compound 6.4]
[1]; [7]
  mrna remaining at 25 µM: 51%
[2]; Table 1
  IC50: 95000 ± 14000 nM
[3]; [5]
  IC50: 53000 ± 9000 nM

## COc1ccc(/C=C\c2cc(OC)c(OC)c(OC)c2)cc1OCC(=O)N[C@H](CO)C(=O)O [Compound 6.5]
[1]; Homo sapiens, HT-29, 48 h, 10 μM, control 100
  mrna remaining at 10 µM: 77%
[2]; Table 1
  IC50: > 150000 nM
[3]; [5]
  IC50: 14000 ± 4000 nM

## COc1ccc(/C=C\c2cc(OC)c(OC)c(OC)c2)cc1NC(=O)CNC(=O)OCC1c2ccccc2-c2ccccc21 [Compound 7.1]
[1]; [8]
  mrna remaining at 0.007 µM: < 70%
[2]; Table 2
  IC50: 186 ± 11 nM
[3]; [4]
  IC50: 3.5 ± 1.9 nM

## COc1ccc(/C=C\c2cc(OC)c(OC)c(OC)c2)cc1NC(=O)[C@H](Cc1ccccc1)NC(=O)OCC1c2ccccc2-c2ccccc21 [Compound 7.5]
[1]; Homo sapiens, HT-29, 48 h, 2 nM, control 100
  mrna remaining at 0.002 µM: < 70%
[2]; Table 2
  IC50: 270 ± 50 nM
[3]; [4]
  IC50: 2.3 ± 2 nM

## COc1ccc(/C=C\c2cc(OC)c(OC)c(OC)c2)cc1NC(=O)[C@H](CCSC)NC(=O)OCC1c2ccccc2-c2ccccc21 [Compound 7.9]
[1]; Homo sapiens, HT-29, 48 h, 30 nM, control 100
  mrna remaining at 0.03 µM: 77%
[2]; Table 2
  IC50: 407 ± 23 nM
[3]; [4]
  IC50: 8 ± 4 nM

## COc1ccc(/C=C\c2cc(OC)c(OC)c(OC)c2)cc1NC(=O)CN [Compound 8.1]
[1]; [8]
  mrna remaining at 0.007 µM: > 100%
[2]; Table 2
  IC50: 400 ± 70 nM
[3]; [4]
  IC50: 10 ± 2 nM

## COc1ccc(/C=C\c2cc(OC)c(OC)c(OC)c2)cc1NC(=O)[C@H](C)N [Compound 8.2]
[1]; Homo sapiens, HT-29, 48 h, 3 nM, control 100
  mrna remaining at 0.003 µM: 74%
[2]; Table 2
  IC50: 611 ± 16 nM
[3]; [4]
  IC50: < 5 nM
[3]; Table 2
  IC50: 4 ± 0.1 nM

## COc1ccc(/C=C\c2cc(OC)c(OC)c(OC)c2)cc1NC(=O)[C@@H](N)C(C)C [Compound 8.3]
[1]; Homo sapiens, HT-29, 48 h, 10 nM, control 100
  mrna remaining at 0.01 µM: < 70%
[2]; Table 2
  IC50: 490 ± 100 nM
[3]; [4]
  IC50: 7.6 ± 0.3 nM

## COc1ccc(/C=C\c2cc(OC)c(OC)c(OC)c2)cc1NC(=O)[C@@H](N)Cc1ccccc1 [Compound 8.5]
[1]; [9]
  mrna remaining at 0.004 µM: 98%
[2]; Table 2
  IC50: 141 ± 3 nM
[3]; [4]
  IC50: < 5 nM
[3]; Table 2
  IC50: 3.5 ± 1.9 nM

## COc1ccc(/C=C\c2cc(OC)c(OC)c(OC)c2)cc1NC(=O)[C@@H](N)C(C)O (stereo partly shown) [Compound 8.7]
[1]; [8]
  mrna remaining at 0.007 µM: 81%
[2]; Table 2
  IC50: 410 ± 40 nM
[3]; [4]
  IC50: 14 ± 3 nM

## COc1ccc(/C=C\c2cc(OC)c(OC)c(OC)c2)cc1NC(=O)[C@@H](N)CCSC [Compound 8.9]
[1]; [9]
  mrna remaining at 0.004 µM: 71%
[2]; Table 2
  IC50: 90 ± 30 nM
[3]; [4]
  IC50: < 5 nM
[3]; Table 2
  IC50: 3.7 ± 0.3 nM
